#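 Grown in 96-well plates, cells were treated for 48 hours with each compound at five concentrations. Insufficient inhibition: endpoint recorded as highest concentration tested. TGI: total growth inhibition.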
# Legend:
# Experiment in all cases: NCI-60 cell line screen, 48 h
# EKVX NSCLC = test system: EKVX NSCLC
# A498 renal = test system: A498 renal
# T-47D breast = test system: T-47D breast
# HCT-116 colon = test system: HCT-116 colon
# HS 578T breast = test system: HS 578T breast
# UACC-257 melanoma = test system: UACC-257 melanoma
# SR leukemia = test system: SR leukemia
# MDA-MB-435 = test system: MDA-MB-435
# OVCAR-8 ovarian = test system: OVCAR-8 ovarian
# OVCAR-4 ovarian = test system: OVCAR-4 ovarian
# K-562 leukemia = test system: K-562 leukemia
# HCT-15 colon = test system: HCT-15 colon
# NCI/ADR-RES ovarian = test system: NCI/ADR-RES ovarian
# OVCAR-5 ovarian = test system: OVCAR-5 ovarian
# MCF7 breast = test system: MCF7 breast
# NCI-H522 lung = test system: NCI-H522 lung
# MDA-N = test system: MDA-N
# SNB-75 CNS = test system: SNB-75 CNS
# UACC-62 melanoma = test system: UACC-62 melanoma
# NCI-H226 lung = test system: NCI-H226 lung
# TK-10 renal = test system: TK-10 renal
# MALME-3M melanoma = test system: MALME-3M melanoma
# SK-OV-3 ovarian = test system: SK-OV-3 ovarian
# RPMI-8226 leukemia = test system: RPMI-8226 leukemia
# PC-3 prostate = test system: PC-3 prostate
# SF-295 CNS = test system: SF-295 CNS
# CCRF-CEM leukemia = test system: CCRF-CEM leukemia
# COLO 205 colon = test system: COLO 205 colon
# SK-MEL-28 melanoma = test system: SK-MEL-28 melanoma
# SK-MEL-5 melanoma = test system: SK-MEL-5 melanoma
# SNB-19 CNS = test system: SNB-19 CNS
# M14 melanoma = test system: M14 melanoma
# HT29 colon = test system: HT29 colon
# DU-145 prostate = test system: DU-145 prostate
# SN12C renal = test system: SN12C renal
# HCC-2998 colon = test system: HCC-2998 colon
# SF-268 CNS = test system: SF-268 CNS
# ACHN renal = test system: ACHN renal
# IGROV1 ovarian = test system: IGROV1 ovarian
# MDA-MB-231 breast = test system: MDA-MB-231 breast
# SW-620 colon = test system: SW-620 colon
# NCI-H460 lung = test system: NCI-H460 lung
# SK-MEL-2 melanoma = test system: SK-MEL-2 melanoma
# NCI-H23 lung = test system: NCI-H23 lung
# KM12 colon = test system: KM12 colon
# UO-31 renal = test system: UO-31 renal
# U251 CNS = test system: U251 CNS
# OVCAR-3 ovarian = test system: OVCAR-3 ovarian
# RXF 393 renal = test system: RXF 393 renal
# MOLT-4 leukemia = test system: MOLT-4 leukemia
# 786-0 renal = test system: 786-0 renal
# BT-549 breast = test system: BT-549 breast
# HOP-62 NSCLC = test system: HOP-62 NSCLC
# A549 NSCLC = test system: A549 NSCLC
# CAKI-1 renal = test system: CAKI-1 renal
# SF-539 CNS = test system: SF-539 CNS
# HOP-92 NSCLC = test system: HOP-92 NSCLC
# LOX IMVI melanoma = test system: LOX IMVI melanoma
smiles,measurement,setting,value
CN1CCN(Cc2nc3c(s2)CCc2sccc2-3)CC1,TGI,EKVX NSCLC,> 100 µM
same,TGI,A498 renal,83.4 µM
same,TGI,T-47D breast,> 100 µM
same,TGI,HCT-116 colon,> 100 µM
same,TGI,HS 578T breast,> 100 µM
same,TGI,UACC-257 melanoma,> 100 µM
same,TGI,SR leukemia,99.7 µM
same,TGI,MDA-MB-435,> 100 µM
same,TGI,OVCAR-8 ovarian,> 100 µM
same,TGI,OVCAR-4 ovarian,> 100 µM
same,TGI,K-562 leukemia,> 100 µM
same,TGI,HCT-15 colon,> 100 µM
same,TGI,NCI/ADR-RES ovarian,> 100 µM
same,TGI,OVCAR-5 ovarian,> 100 µM
same,TGI,MCF7 breast,> 100 µM
same,TGI,NCI-H522 lung,> 100 µM
same,TGI,MDA-N,> 100 µM
same,TGI,SNB-75 CNS,> 100 µM
same,TGI,UACC-62 melanoma,57 µM
same,TGI,NCI-H226 lung,> 100 µM
same,TGI,TK-10 renal,> 100 µM
same,TGI,MALME-3M melanoma,> 100 µM
same,TGI,SK-OV-3 ovarian,> 100 µM
same,TGI,RPMI-8226 leukemia,> 100 µM
same,TGI,PC-3 prostate,> 100 µM
same,TGI,SF-295 CNS,> 100 µM
same,TGI,CCRF-CEM leukemia,> 100 µM
same,TGI,COLO 205 colon,> 100 µM
same,TGI,SK-MEL-28 melanoma,73 µM
same,TGI,SK-MEL-5 melanoma,> 100 µM
same,TGI,SNB-19 CNS,> 100 µM
same,TGI,M14 melanoma,> 100 µM
same,TGI,HT29 colon,> 100 µM
same,TGI,DU-145 prostate,> 100 µM
same,TGI,SN12C renal,> 100 µM
same,TGI,HCC-2998 colon,> 100 µM
same,TGI,SF-268 CNS,> 100 µM
same,TGI,ACHN renal,> 100 µM
same,TGI,IGROV1 ovarian,> 100 µM
same,TGI,MDA-MB-231 breast,> 100 µM
same,TGI,SW-620 colon,> 100 µM
same,TGI,NCI-H460 lung,> 100 µM
same,TGI,SK-MEL-2 melanoma,> 100 µM
same,TGI,NCI-H23 lung,> 100 µM
same,TGI,KM12 colon,> 100 µM
same,TGI,UO-31 renal,> 100 µM
same,TGI,U251 CNS,> 100 µM
same,TGI,OVCAR-3 ovarian,> 100 µM
same,TGI,RXF 393 renal,> 100 µM
same,TGI,MOLT-4 leukemia,> 100 µM
same,TGI,786-0 renal,> 100 µM
same,TGI,BT-549 breast,> 100 µM
same,TGI,HOP-62 NSCLC,> 100 µM
same,TGI,A549 NSCLC,> 100 µM
same,TGI,CAKI-1 renal,> 100 µM
CC1=CC(=O)N(n2c(Cc3ccc(Cl)cc3)n[nH]c2=O)C1=O,TGI,EKVX NSCLC,> 100 µM
same,TGI,A498 renal,> 100 µM
same,TGI,T-47D breast,> 100 µM
same,TGI,HCT-116 colon,> 100 µM
same,TGI,HS 578T breast,> 100 µM
same,TGI,UACC-257 melanoma,> 100 µM
same,TGI,SR leukemia,38.7 µM
same,TGI,MDA-MB-435,> 100 µM
same,TGI,SF-539 CNS,> 100 µM
same,TGI,HOP-92 NSCLC,67.7 µM
same,TGI,OVCAR-8 ovarian,> 100 µM
same,TGI,OVCAR-4 ovarian,> 100 µM
same,TGI,K-562 leukemia,72.2 µM
same,TGI,HCT-15 colon,> 100 µM
same,TGI,NCI/ADR-RES ovarian,> 100 µM
same,TGI,OVCAR-5 ovarian,> 100 µM
same,TGI,MCF7 breast,> 100 µM
same,TGI,NCI-H522 lung,35.7 µM
same,TGI,MDA-N,> 100 µM
same,TGI,UACC-62 melanoma,45.4 µM
same,TGI,NCI-H226 lung,> 100 µM
same,TGI,TK-10 renal,> 100 µM
same,TGI,MALME-3M melanoma,> 100 µM
same,TGI,SK-OV-3 ovarian,> 100 µM
same,TGI,RPMI-8226 leukemia,53.2 µM
same,TGI,PC-3 prostate,> 100 µM
same,TGI,SF-295 CNS,> 100 µM
same,TGI,CCRF-CEM leukemia,29.3 µM
same,TGI,COLO 205 colon,> 100 µM
same,TGI,SK-MEL-5 melanoma,> 100 µM
same,TGI,SNB-19 CNS,> 100 µM
same,TGI,M14 melanoma,> 100 µM
same,TGI,HT29 colon,55.3 µM
same,TGI,DU-145 prostate,> 100 µM
same,TGI,SN12C renal,> 100 µM
same,TGI,HCC-2998 colon,> 100 µM
same,TGI,SF-268 CNS,> 100 µM
same,TGI,LOX IMVI melanoma,> 100 µM
same,TGI,ACHN renal,> 100 µM
same,TGI,IGROV1 ovarian,> 100 µM
same,TGI,MDA-MB-231 breast,> 100 µM
same,TGI,SW-620 colon,> 100 µM
same,TGI,NCI-H460 lung,> 100 µM
same,TGI,SK-MEL-2 melanoma,> 100 µM
same,TGI,NCI-H23 lung,> 100 µM
same,TGI,KM12 colon,> 100 µM
same,TGI,UO-31 renal,> 100 µM
same,TGI,U251 CNS,> 100 µM
same,TGI,OVCAR-3 ovarian,> 100 µM
same,TGI,RXF 393 renal,53.1 µM
same,TGI,MOLT-4 leukemia,47.4 µM
same,TGI,786-0 renal,> 100 µM
same,TGI,BT-549 breast,> 100 µM
same,TGI,A549 NSCLC,> 100 µM
same,TGI,CAKI-1 renal,> 100 µM

# From PubChem BioAssay (NCI)
